In patent publication US20230272029A1, “CO-AGONISTS AT GLP-1 AND GIP RECEPTORS SUITABLE FOR ORAL DELIVERY” (Novo Nordisk A/S, priority 2020, published 2023):
Marks after values point to notes of the source that are not given here. Starred links: 1 amine or outer side, 2 acyl side, 3 side chain; linkers in the order of their positions; H or OH if unused. Non-standard residues stand in square brackets, D forms with d. Residues, ends and D or L forms follow the SMILES beside them. Groups on a side chain read outwards from the residue. *: point of attachment. C18 diacid = O=C(O)CCCCCCCCCCCCCCCCC(=O)*; γGlu = O=C(O)[C@H](CCC(=O)[*:2])N[*:1]; εLys = N[C@@H](CCCCN[*:1])C(=O)[*:2]; Aib = CC(C)(N)C(=O)O

Assay: Pharmacokinetic study in dogs after oral dosing of tablets with SNAC
Type: in vivo, Beagle dogs
Protocol: The purpose of this example is to determine the half-life and plasma exposure in vivo of the compounds of the present invention after p.o. administration to beagle dogs, i.e. the terminal half-life and concentration of test substance that reaches circulation with time. This is done in a pharmacokinetic (PK) study, where these parameters of the compound in question are determined. By terminal half-life is generally meant the period of time it takes to halve a certain plasma concentration, measured after the initial distribution phase.
The amount of SNAC in the tablet composition was 100-300 mg, the amount of magnesium stearate in the tablet composition was 7.7 mg, and the target amount of each test substance in the tablet composition was 3-4 mg.
Male beagle dogs, 1-7 years of age and weighing 9-17 kg during the study period, were included in the study. The dogs were dosed in a fasting state. The dogs were group housed in pens (12 hours light: 12 hours dark), and fed individually and restrictedly once daily with Royal Canin Medium Adult dog food (Royal Canin Products, China Branch, or Brogaarden A/S, Denmark). The dogs were used for repeated PK studies with a suitable wash-out period between successive dosing. An appropriate acclimatization period was given prior to initiation of the first PK study. All handling, dosing, and blood sampling of the animals were performed by trained and skilled staff. Before the studies, the dogs were fasted overnight and from 0 to 4 hours after dosing. The dogs were restricted to water 1 hour before dosing until 4 hours after dosing, but otherwise had ad libitum access to water during the whole period.
The compositions were administered by a single oral dosing to the dogs in groups of 6-8 dogs. […] The mouth was then closed, and 10 mL of tap water was given by syringe or gavage to facilitate swallowing of the tablet.
For each blood sample time point, approximately 0.8 mL of whole blood was collected in a 1.5 mL EDTA-coated tube, which was gently turned to mix the sample with EDTA. Blood samples were collected in EDTA buffer (8 mM) and then centrifuged at 4° C. and 2000g for 10 minutes. Plasma was pipetted into Micronic tubes on dry ice, and kept at −20° C. or lower until analysis. Blood samples were taken as appropriate, for example from a venflon in the cephalic vein in the front leg for the first 2 hours and then with syringe from the jugular vein for the rest of the time points. The first few drops were allowed to drain from the venflon to avoid heparin saline from the venflon in the sample.
All blood samples were collected into test tubes containing EDTA for stabilisation and kept on ice until centrifugation. Plasma was separated from whole blood by centrifugation and the plasma was stored at −20° C. or lower until analysis.
The plasma was analysed for test substance using LC-MS (Liquid Chromatography-Mass Spectrometry) as known to the person skilled in the art. […] RP-HPLC separation was achieved using a linear gradient of 1:1 acetonitrile/methanol in 1% aqueous formic acid using either: a Phenomenex Onyx Monolithic C18 column (50×2.0 mm) and a flow rate of 0.8 mL/min at 30° C.; or an Agilent Poroshell 120 SB-C18 column (50×2.1 mm, 2.7 μm) at a flow rate of 0.4 mL/min at 60° C. The mass spectrometer was operated in either positive ionization SIM mode or positive ionization PRM mode.
For each individual animal, a plasma concentration-time profile was analysed by a non-compartmental model in Pharsight Phoenix WinNonLin ver. 6.4 software or other relevant software for PK analysis, and the resulting terminal half-life (t1/2), maximum plasma concentration per dose (Cmax/D), time for maximum plasma concentration (tmax), and area under the curve to infinity per dose (AUC/D) were determined. Summary statistics of pharmacokinetic results were presented as median (for tmax), harmonic mean ([…]), or arithmetic mean (Cmax, AUC).

SMILES | Cmax/Dose (dog, in vivo, po) | Cmax/Dose (oral tablet, 300 mg SNAC, 3 mg test substance, Beagle dogs, arithmetic mean)
CC[C@H](C)[C@H](NC(=O)[C@H](Cc1ccccc1)NC(=O)[C@H](CCC(=O)O)NC(=O)[C@H](CCCNC(=N)N)NC(=O)[C@H](C)NC(=O)[C@H](C)NC(=O)[C@H](CCC(N)=O)NC(=O)[C@H](CCCCNC(=O)[C@@H](N)CCCCNC(=O)[C@@H](N)CCCCNC(=O)CC[C@H](NC(=O)CCCCCCCCCCCCCCCCC(=O)O)C(=O)O)NC(=O)[C@H](CCC(=O)O)NC(=O)[C@H](CC(C)C)NC(=O)[C@H](CC(C)C)NC(=O)[C@@H](NC(=O)[C@H](CO)NC(=O)[C@H](Cc1ccc(O)cc1)NC(=O)[C@H](CC(=O)O)NC(=O)[C@H](CO)NC(=O)[C@@H](NC(=O)[C@H](Cc1ccccc1)NC(=O)[C@@H](NC(=O)CNC(=O)[C@H](CCC(=O)O)NC(=O)C(C)(C)NC(=O)[C@@H](N)Cc1ccc(O)cc1)[C@@H](C)O)[C@@H](C)O)[C@@H](C)CC)C(=O)N[C@@H](CC(N)=O)C(=O)N[C@@H](Cc1c[nH]c2ccccc12)C(=O)N[C@@H](CC(C)C)C(=O)N[C@@H](CC(C)C)C(=O)N[C@@H](C)C(=O)NCC(=O)NCC(=O)N1CCC[C@H]1C(=O)N[C@@H](CO)C(=O)N[C@@H](CO)C(=O)O [Compound No. 20] (H-Y[Aib]EGTFTSDYSILLEK([εLys-εLys-γGlu-C18 diacid])QAAREFINWLLAGGPSS-OH) | 0.21 kg/L | 
CC[C@H](C)[C@H](NC(=O)[C@H](Cc1ccccc1)NC(=O)[C@H](CCC(=O)O)NC(=O)[C@H](CCC(N)=O)NC(=O)[C@H](C)NC(=O)[C@H](C)NC(=O)[C@H](CCC(N)=O)NC(=O)[C@H](CCCCNC(=O)[C@@H](N)CCCCNC(=O)[C@@H](N)CCCCNC(=O)CC[C@H](NC(=O)CCCCCCCCCCCCCCCCC(=O)O)C(=O)O)NC(=O)[C@H](CCC(=O)O)NC(=O)[C@H](CC(C)C)NC(=O)[C@H](CC(C)C)NC(=O)[C@@H](NC(=O)[C@H](CO)NC(=O)[C@H](Cc1ccc(O)cc1)NC(=O)[C@H](CC(=O)O)NC(=O)[C@H](CO)NC(=O)[C@@H](NC(=O)[C@H](Cc1ccccc1)NC(=O)[C@@H](NC(=O)CNC(=O)[C@H](CCC(=O)O)NC(=O)C(C)(C)NC(=O)[C@@H](N)Cc1ccc(O)cc1)[C@@H](C)O)[C@@H](C)O)[C@@H](C)CC)C(=O)N[C@@H](CC(N)=O)C(=O)N[C@@H](Cc1c[nH]c2ccccc12)C(=O)N[C@@H](CC(C)C)C(=O)N[C@@H](CC(C)C)C(=O)N[C@@H](C)C(=O)NCC(=O)NCC(=O)N1CCC[C@H]1C(=O)N[C@@H](CO)C(=O)N[C@@H](CO)C(=O)NCC(=O)N[C@@H](C)C(=O)N1CCC[C@H]1C(=O)N1CCC[C@H]1C(=O)N1CCC[C@H]1C(=O)N[C@@H](CO)C(=O)O [Compound No. 24] (H-Y[Aib]EGTFTSDYSILLEK([εLys-εLys-γGlu-C18 diacid])QAAQEFINWLLAGGPSSGAPPPS-OH) | 0.29 kg/L | 
CC[C@H](C)[C@H](NC(=O)[C@H](Cc1ccccc1)NC(=O)[C@H](CCC(=O)O)NC(=O)[C@H](CCC(=O)O)NC(=O)[C@H](C)NC(=O)[C@H](C)NC(=O)[C@H](CCC(N)=O)NC(=O)[C@H](CCCCNC(=O)[C@@H](N)CCCCNC(=O)[C@@H](N)CCCCNC(=O)CC[C@H](NC(=O)CCCCCCCCCCCCCCCCC(=O)O)C(=O)O)NC(=O)[C@H](CCC(=O)O)NC(=O)[C@H](CC(C)C)NC(=O)[C@H](CC(C)C)NC(=O)[C@@H](NC(=O)[C@H](CO)NC(=O)[C@H](Cc1ccc(O)cc1)NC(=O)[C@H](CC(=O)O)NC(=O)[C@H](CO)NC(=O)[C@@H](NC(=O)[C@H](Cc1ccccc1)NC(=O)[C@@H](NC(=O)CNC(=O)[C@H](CCC(=O)O)NC(=O)C(C)(C)NC(=O)[C@@H](N)Cc1ccc(O)cc1)[C@@H](C)O)[C@@H](C)O)[C@@H](C)CC)C(=O)N[C@@H](CC(N)=O)C(=O)N[C@@H](Cc1c[nH]c2ccccc12)C(=O)N[C@@H](CC(C)C)C(=O)N[C@@H](CC(C)C)C(=O)N[C@@H](C)C(=O)NCC(=O)NCC(=O)N1CCC[C@H]1C(=O)N[C@@H](CO)C(=O)N[C@@H](CO)C(=O)NCC(=O)N[C@@H](C)C(=O)N1CCC[C@H]1C(=O)N1CCC[C@H]1C(=O)N1CCC[C@H]1C(=O)N[C@@H](CO)C(=O)O [Compound No. 25] (H-Y[Aib]EGTFTSDYSILLEK([εLys-εLys-γGlu-C18 diacid])QAAEEFINWLLAGGPSSGAPPPS-OH) | 0.30 kg/L | 
CC[C@H](C)[C@H](NC(=O)[C@H](Cc1ccccc1)NC(=O)[C@H](CCC(=O)O)NC(=O)[C@H](Cc1c[nH]cn1)NC(=O)[C@H](C)NC(=O)[C@H](C)NC(=O)[C@H](CCC(N)=O)NC(=O)[C@H](CCCCNC(=O)[C@@H](N)CCCCNC(=O)[C@@H](N)CCCCNC(=O)CC[C@H](NC(=O)CCCCCCCCCCCCCCCCC(=O)O)C(=O)O)NC(=O)[C@H](CCC(=O)O)NC(=O)[C@H](CC(C)C)NC(=O)[C@H](CC(C)C)NC(=O)[C@@H](NC(=O)[C@H](CO)NC(=O)[C@H](Cc1ccc(O)cc1)NC(=O)[C@H](CC(=O)O)NC(=O)[C@H](CO)NC(=O)[C@@H](NC(=O)[C@H](Cc1ccccc1)NC(=O)[C@@H](NC(=O)CNC(=O)[C@H](CCC(=O)O)NC(=O)C(C)(C)NC(=O)[C@@H](N)Cc1ccc(O)cc1)[C@@H](C)O)[C@@H](C)O)[C@@H](C)CC)C(=O)N[C@@H](CC(N)=O)C(=O)N[C@@H](Cc1c[nH]c2ccccc12)C(=O)N[C@@H](CC(C)C)C(=O)N[C@@H](CC(C)C)C(=O)N[C@@H](C)C(=O)NCC(=O)NCC(=O)N1CCC[C@H]1C(=O)N[C@@H](CO)C(=O)N[C@@H](CO)C(=O)NCC(=O)N[C@@H](C)C(=O)N1CCC[C@H]1C(=O)N1CCC[C@H]1C(=O)N1CCC[C@H]1C(=O)N[C@@H](CO)C(=O)O [Compound No. 26] (H-Y[Aib]EGTFTSDYSILLEK([εLys-εLys-γGlu-C18 diacid])QAAHEFINWLLAGGPSSGAPPPS-OH) | 0.49* kg/L | 
CC[C@H](C)[C@H](NC(=O)[C@H](Cc1ccccc1)NC(=O)[C@H](CCC(=O)O)NC(=O)[C@H](CCCNC(=N)N)NC(=O)[C@H](C)NC(=O)[C@H](C)NC(=O)[C@H](CCC(N)=O)NC(=O)[C@H](CCCCNC(=O)[C@@H](N)CCCCNC(=O)[C@@H](N)CCCCNC(=O)CC[C@H](NC(=O)CCCCCCCCCCCCCCCCC(=O)O)C(=O)O)NC(=O)[C@H](CCC(=O)O)NC(=O)[C@H](CC(C)C)NC(=O)[C@H](CC(C)C)NC(=O)[C@@H](NC(=O)[C@H](CO)NC(=O)[C@H](Cc1ccc(O)cc1)NC(=O)[C@H](CC(=O)O)NC(=O)[C@H](CO)NC(=O)[C@@H](NC(=O)[C@H](Cc1ccccc1)NC(=O)[C@@H](NC(=O)CNC(=O)[C@H](CCC(=O)O)NC(=O)C(C)(C)NC(=O)[C@@H](N)Cc1ccc(O)cc1)[C@@H](C)O)[C@@H](C)O)[C@@H](C)CC)C(=O)N[C@@H](CCC(=O)O)C(=O)N[C@@H](Cc1c[nH]c2ccccc12)C(=O)N[C@@H](CC(C)C)C(=O)N[C@@H](CC(C)C)C(=O)N[C@@H](CCCNC(=N)N)C(=O)NCC(=O)NCC(=O)N1CCC[C@H]1C(=O)N[C@@H](CCC(=O)O)C(=O)N[C@@H](CO)C(=O)NCC(=O)N[C@@H](C)C(=O)N1CCC[C@H]1C(=O)N1CCC[C@H]1C(=O)N1CCC[C@H]1C(=O)N[C@@H](CO)C(=O)O [Compound No. 28] (H-Y[Aib]EGTFTSDYSILLEK([εLys-εLys-γGlu-C18 diacid])QAAREFIEWLLRGGPESGAPPPS-OH) |  | 0.36** kg/L
